Several values for one entry are separate records, joined by “and”; a condition that tells them apart may be missing. Equal entries are not always repeated.
Columns and labels:
TGF-βRI = molecular target: T1, TGF-βRI (Homo sapiens, UniProt P36897); assay: Test of inhibitory activity of TGFβ-RI in vitro; type: biochemical; settings: 10 μM ATP
T1 sequence (P36897 34-503): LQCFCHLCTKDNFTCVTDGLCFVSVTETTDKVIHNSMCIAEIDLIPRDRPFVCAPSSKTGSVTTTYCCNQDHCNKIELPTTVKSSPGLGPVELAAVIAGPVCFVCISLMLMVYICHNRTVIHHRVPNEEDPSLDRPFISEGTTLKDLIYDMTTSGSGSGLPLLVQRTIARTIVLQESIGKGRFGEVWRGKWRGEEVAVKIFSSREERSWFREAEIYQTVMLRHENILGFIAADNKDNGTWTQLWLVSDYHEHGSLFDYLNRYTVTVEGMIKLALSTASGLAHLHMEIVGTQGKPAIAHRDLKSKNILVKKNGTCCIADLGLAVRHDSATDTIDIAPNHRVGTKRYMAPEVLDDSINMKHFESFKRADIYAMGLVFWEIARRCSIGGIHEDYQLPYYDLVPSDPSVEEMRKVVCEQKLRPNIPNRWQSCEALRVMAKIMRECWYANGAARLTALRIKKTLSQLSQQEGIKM
Protocol: i) Test compound: the IC50 was determined by diluting into 10 gradient points with each gradient by three-fold dilution and with a starting concentration of 5 μM.
ii) The IC50 of reference compound LDN193189 was determined by diluting into 10 gradient points with each gradient by three-fold dilution and with a starting concentration of 20 μM.
iii) The reaction system contains 10 μM ATP.
iv) Calculate the IC50 value by curve fitting when the percentage of enzyme activity (compared to the solvent group) is below 65% at the highest concentration of the sample.

CT-26 cells = assay: Tumor cell proliferation inhibition in BALB/c mouse model of subcutaneously transplanted CT-26 cells, alone or combined with BioXcell-mPD-L1; type: in vivo; settings: for Tumor volume: average ± SEM, small molecules 75 mg/kg PO twice a day, BioXcell-mPD-L1 10 mg/kg IP twice a week
Protocol: The following table lists the animal grouping and dosing regimen of embodiment 1, the positive reference compound LY2157299 and the BioXcell PD-L1 monoclonal antibody (BioXcell-mPD-L1), which are used alone or in combination in vivo.
Mouse colon cancer CT-26 cells were cultured in vitro in a single layer, and culture conditions is RPMI1640 medium (Medium No. 1640, Roswell Parker Memorial Institute) supplemented with 10% fetal bovine serum at 37° C., 5% CO2. Passage was routinely digested with trypsin-EDTA twice a week. When the cell saturation is 80%-90%, the cells are collected, counted, and inoculated.
0.1 mL (1×10^5) CT-26 cells were subcutaneously inoculated into the right back of each BALB/c mouse. The mice were administered in groups according to the body weight of the mice on the second day after cell inoculation.
The experimental indicator is to investigate whether tumor growth is inhibited, delayed or cured. Tumor diameters were measured with Vernier calipers twice a week. The tumor volume is calculated as: V=0.5a×b^2, and a and b represent the long and short diameters of the tumor, respectively.
The antitumor effect of the compound was evaluated by TGI (%) or tumor proliferation rate T/C (%). TGI (%) reflects the tumor growth inhibition rate. Calculation of TGI (%): TGI (%)=[(1-(mean tumor volume at the end of administration of a treatment group—mean tumor volume at the start of administration of the treatment group))/(mean tumor volume at the end of treatment of the solvent control group)—mean tumor volume at the start of treatment of the solvent control group)]×100%.
Tumor proliferation rate T/C (%): The formula is as follows: T/C %=T/C×100% (T: treatment group; C: negative control group).
Tumor weights were measured after the end of the experiment and the percentage of T/Cweight was calculated. Tweight and Cweight represent the tumor weights of the drug-administered group and the vehicle control group, respectively.
Statistical analysis, including mean and standard error (SEM) of tumor volume at each time point for each group (see Table 4 for specific data). […] T-test was used for comparison between the two groups, and one-way analysis of variance was used for comparison between three or more groups. If there was a significant difference in F values, the Gass-Howell method was used to test. If there is no significant difference in F values, the Dunnet (2-sided) method is used for analysis. All data analysis was performed with SPSS 17.0. A significant difference was considered at p<0.05.

Cc1cccc(-c2nn3c(c2-c2ccc4ncnn4c2/C=C/C(N)=O)CCC3)n1 [Embodiment 1]
IC50 (TGF-βRI): 1 to 50 nM
Tumor volume (CT-26 cells; day 10 of administration): 102 ± 19 mm^3
Tumor volume (CT-26 cells; day 13 of administration): 339 ± 89 mm^3
Tumor volume (CT-26 cells; day 15 of administration): 552 ± 147 mm^3
Tumor volume (CT-26 cells; day 17 of administration): 874 ± 240 mm^3
Tumor volume (CT-26 cells; day 20 of administration): 1331 mm^3 and 1331 ± 394 mm^3
Tumor proliferation rate T/C (CT-26 cells; twenty days after start of administration, 75 mg/kg PO and/or 10 mg/kg IP): 51%
Antitumor effect compared with the solvent control group (CT-26 cells; twenty days after start of administration, 75 mg/kg and/or 10 mg/kg): no significant antitumor effect

Source: patent US10548883B2, “Benzotriazole-derived α and β-unsaturated amide compound used as TGF-β RI inhibitor” (GENFLEET THERAPEUTICS (SHANGHAI) INC., priority 2016, dated 2020)
